Here are results for one molecule from publication PMC4884413, “In vivo therapeutic efficacy and pharmacokinetics of colistin sulfate in an experimental model of enterotoxigenic Escherichia coli infection in weaned pigs” (Veterinary Research, 2016).

A short description of series [1]: CS plasma concentrations by HPLC-MS/MS after oral administration. The series is classed as in vivo, pigs. The following applies: both trials. The protocol:
(§1) Colistin sulfate (Bond & Beaulac Inc., QC, Canada) was administered by oral gavage in 5 mL of water using a polyethylene tube attached to a syringe, at a dose of 100 000 or 50 000 IU/kg in trials 1 and 2 respectively.
Blood samples (3 mL) were collected using potassium EDTA tubes, from the jugular vein of eight pigs in each treated group, challenged or not of the two trials, at 0.5, 12, 24 and 48 h after the last CS oral administration on day 5.
Plasma was separated by centrifugation at 3000 g for 10 min and stored at −20 °C prior to analysis. These samples were used to determine CS plasma concentrations by high performance HPLC–MS/MS, in order to determine the slope of the terminal phase (λz). The λz was calculated as the negative of the slope of the log-linear regression of the natural logarithm concentration–time curve during the terminal phase. The λz is an important parameter used to determine CS elimination half-life (T1/2), which is an index of drug persistence in the body. Bioanalyses and pharmacokinetic analyses were performed as previously described. The quantification of CS was based on the peak area ratio of the analyte with the internal standard. A calibration curve was used for determining the concentration of CS in all unknown samples by comparing the peak area ratio of the unknown samples to a set of standard samples of known concentration. […]

The conditions of series [2]: intramuscular (IM), pigs, cited from earlier work. An excerpt:
In our study, regardless of the dose, CS treatment led to a decrease of nearly 4 log cfu/g in fecal shedding of ETEC: F4 and total E. coli, but only during the treatment period. […] In our study, the effect of CS on the decrease of ETEC: F4 and total E. ...

In series [3] the test system is ETEC: F4. In words: Fecal ETEC: F4 shedding in challenged weaned pigs. Type of series: in vivo. How it is done:
(§2) Pigs were selected based on the presence of the F4 receptor gene by PCR–RFLP as previously described at 4 days of age. Two trials of 48 pigs were conducted using different doses of CS [100 000 IU/kg (trial 1) or 50 000 IU/kg (trial 2)]. In each trial, four groups of 12 pigs were constituted: challenged treated, challenged untreated, unchallenged treated, and unchallenged untreated.
(§3) For experimental infection of pigs, a nalidixic acid-resistant (Nal^r) variant of ETEC: F4 strain ECL8559 (O149: LT: STa: STb: East1: paa: hemβ: F4), kindly provided by the E. coli Laboratory as described previously, was used. The strain was passaged in a weaned pig to enhance its pathogenicity. A hemolytic, Nal^r colony isolated from the feces of this pig was confirmed to be positive for O149 and the virulence genes F4, STa, STb, LT by multiplex PCR as previously described. This strain, designated ECL8559A, was used in the experimental challenge in this study. After 1-week of acclimatization, 28-day-old pigs in the challenge groups were orally gavaged with 10^9 CFU of the ETEC: F4 strain in 5 mL of trypticase soy broth (Difco Laboratories, Inc., Detroit, MI, USA) following the administration of 10 mL of CaCO3 to neutralize gastric acid.
as §1
Fresh fecal samples were obtained from pigs using pre-weighed sterile rectal swabs (Puritan Medical Products, Guilford, Maine, USA). Bacteriological examination of fecal samples was performed 1 day before and 1, 2, 3, 5, 6, 7, 8, 10, 13, 20, 27, 36 days after oral challenge to evaluate fecal excretion of the challenge ETEC: F4 strain and total E. coli count. […] Rectal swabs were weighed before and after sampling of pigs for individual fecal material quantification.

Series [4] has as its system ETEC: F4. In words: Diarrhea score (fecal consistency 0-4) in ETEC: F4 challenged weaned pigs. The series is classed as in vivo. The following applies: after 2 days of CS administration (d2), also d3 and d4, both trials, challenged treated vs challenged untreated, p < 0.0001.
Excerpt: as §3, with “acid. […]” for “acid.”
After the oral challenge, pigs were observed daily for signs of anorexia, lethargy and diarrhea. The severity of diarrhea was assessed visually by using a fecal consistency scoring (0, normal; 1, soft feces; 2, mild diarrhea; 3, semi liquid diarrhea and 4, liquid diarrhea) as described by Jamalludeen et al.. The rectal body temperature was monitored daily using a digital thermometer.
Ordinal diarrhea scores were analyzed with the Cochran-Mantel-Haenszel test at each time period.

The nature of series [5]: Body weight of weaned pigs. Type of series: in vivo. The conditions noted are these: both trials, challenged treated compared to challenged untreated pigs. The protocol: Pigs were weighed individually using an electric scale prior to inoculation and at 6, 19 and 35 days after beginning CS treatment.
Bacterial counts and CS plasma concentrations were log10 transformed prior to data analysis to normalize distributions. Total E. coli counts, ETEC: F4 counts, rectal temperature, and body weight were analyzed with repeated-measures ANOVA, with time as a within-subject factor and group as the between-subject factor. A priori contrasts were performed to compare group means at different time periods and to compare pre- and post-infection means in each treatment. For these multiple comparisons, the alpha level was adjusted downward using the Benjamini-Hochberg sequential procedure. A similar procedure was used to analyze CS plasma concentration to determine effect of ETEC: F4 oral challenge on CS intestinal absorption in pigs.

The subject of the next series is E. coli K99. The conditions noted are these: CS 300 mg/kg of diet, 7 or 14 days, weanling pigs challenged with E. coli K99; cited from earlier work.
A further series deals with total E. coli. Description: Fecal total E. coli shedding in weaned pigs. Type of series: in vivo. How it is done: as §2, §3, §1
Fresh fecal samples were obtained from pigs using pre-weighed sterile rectal swabs (Puritan Medical Products, Guilford, Maine, USA). Bacteriological examination of fecal samples was performed 1 day before and 1, 2, 3, 5, 6, 7, 8, 10, 13, 20, 27, 36 days after oral challenge to evaluate fecal excretion of the challenge ETEC: F4 strain and total E. coli count. One millilitre of buffered peptone water solution (BPW) was added to each swab and selected dilutions were plated on MacConkey agar and 5% bovine blood agar plates containing nalidixic acid at 50 μg/mL (Sigma-Aldrich Canada Ltd., Oakville, ON, Canada) to count the total E. coli population and the hemolytic challenge ETEC: F4 strain respectively, as previously described. In parallel, 5% bovine blood agar plates containing nalidixic acid at 50 μg/mL and CS at 2 μg/mL and MacConkey agar plates containing CS at 2 μg/mL were used to enumerate the CS resistant hemolytic challenge ETEC: F4 and total E. coli population respectively. The plates were incubated aerobically for 24 h at 37 °C. Isolates recovered from media containing 2 μg/mL of colistin were considered to be putative CS-resistant, as previously described. All samples were processed on the day of collection. Rectal swabs were weighed before and after sampling of pigs for individual fecal material quantification.

Counter-ions that a name gives are not always drawn. Like-named read-outs stand apart in the source and are kept apart here. Bridge positions count the residues as written; N and C are the ends. Square brackets hold non-standard residues; d marks the D form. Peptide text beside a SMILES is read from it. * marks the point of attachment. X1 = CC[C@H](C)CCCCC(=O)*; Dab = NCC[C@H](N)C(=O)O

Regarding `CC[C@H](C)CCCCC(=O)N[C@@H](CCN)C(=O)N[C@H](C(=O)N[C@@H](CCN)C(=O)N[C@H]1CCNC(=O)[C@H]([C@@H](C)O)NC(=O)[C@H](CCN)NC(=O)[C@H](CCN)NC(=O)[C@H](CC(C)C)NC(=O)[C@@H](CC(C)C)NC(=O)[C@H](CCN)NC1=O)[C@@H](C)O` [Colistin sulfate] (X1-[Dab]T[Dab][Dab][Dab][dL]L[Dab][Dab]T; lactam 4-C), in series [1] (48 h following the last CS administration, LLOQ 1 ng/mL of plasma), the plasma concentrations entry is on record as “below the LLOQ”. In addition, the “CS plasma concentrations, challenged treated compared to unchallenged treated groups” value in series [1] (all sampling times) is recorded as “higher”. Also, the systemic bioavailability in series [2] (2.5 mg/kg bw) is reported as 95.94%; in series [2] (5 mg/kg bw) it was 88.45%. Moreover, the “fecal ETEC: F4 shedding” value with ETEC: F4 [3] (both trials (100 000 or 50 000 IU/kg oral, twice daily, 5 days), between d2 and d6, treated vs untreated challenged pigs, p < 0.0001) was “significant reduction”. Also, the “levels of ETEC: F4 in feces” value in the series with ETEC: F4 [3] (both trials, most pigs, between d4 and d6) is on record as “dropped below our detection limit”. In the series with ETEC: F4 [3] (regardless of the dose, only during the treatment period), the “decrease in fecal shedding of ETEC: F4” value is approximately 4 log cfu/g. For the same molecule, the diarrhea scores result in the series on ETEC: F4 [4] is given as “significantly decreased”. In addition, the pig weight losses entry in series [5] is reported as “did not prevent pig weight losses”. The “reduction of the number of E. coli in cecal digesta” value in the series with E. coli K99 is reported as 4.38 log cfu/g. In the series with E. coli K99, the “reduction of the number of E. coli in ileal digesta” value is recorded as 5.30 log cfu/g. Besides, the “fecal total E. coli shedding” value was “significant reduction” in the series on total E. coli (trial 1, 100 000 IU/kg oral twice daily 5 days, d1 to d5, challenged treated vs challenged untreated, p < 0.0001); “significant reduction” in the series on total E. coli (trial 1, 100 000 IU/kg, d2 to d6, unchallenged treated vs unchallenged untreated, p < 0.0001); “significant reduction” in the series on total E. coli (trial 2, 50 000 IU/kg oral twice daily 5 days, d1 to d6, challenged treated vs challenged untreated, p < 0.0007); “significant reduction” in the series with total E. coli (trial 2, 50 000 IU/kg, d2 to d5, unchallenged treated vs unchallenged untreated, p < 0.0001).
